{"source": "patent US4016280A", "about": "“4,4-Diarylpiperidine compositions and use” (Byk Gulden Lomberg Chemische Fabrik GmbH, priority 1969, dated 1977)", "key": {"[1]": {"assay": "Acute toxicity in the albino mouse", "conditions": "mouse, in vivo, iv; Table 2; i.v.; read-out: Acute toxicity in the albino mouse LD50 i.v.", "experimental": "As stated above, the compounds of formula I have advantageous central nervous system stimulating properties. Side-effects, as they are encountered on administration of amphetamine-type stimulants, are produced to a much lesser extent by the 4,4-diphenylpiperidine compounds, if at all. […] The tests were carried out according to known and accepted pharmacological standard test methods.\na Acute toxicity 150 mg./kg. 100 mg./kg."}, "albino mouse [2]": {"system": "albino mouse", "assay": "General behaviour of the albino mouse with different doses", "assay_type": "in vivo", "conditions": "albino mouse; for Vigilance / Locomotory activity / Restlessness Stereotype / Salivation: different doses per os, Examples 28, 29: 50 to 300 mg/kg", "experimental": "Acute toxi- General behaviour of the albino\ncity in the mouse with different doses*\n(§1) *drugs administered per os\n(§2) **administered in doses from 50 to 300 mg/kg"}, "albino mouse [3]": {"system": "albino mouse", "assay": "Antagonism in the albino mouse of reserpine (preventive and curative ptosis/sedation)", "assay_type": "in vivo", "conditions": "reserpine 2mg/kg sc., drug per os; for ED50: Mus musculus, po", "experimental": "(§3) Antagonism in the albino mouse\n(§4) Com- Preventive Curative catalepsy\n(§5) of tion dation p.o.) i.p.)\nas §1, §2"}, "albino mouse [4]": {"system": "albino mouse", "assay": "Antagonism in the albino mouse of perphenazine catalepsy", "assay_type": "in vivo", "conditions": "perphenazine 10 mg/kg p.o., drug per os, Examples 28, 29: 50 to 300 mg/kg; for ED50: Mus musculus, po", "experimental": "as §3, §4, §5, §1, §2"}, "albino mouse [5]": {"system": "albino mouse", "assay": "Antagonism in the albino mouse of tremorine tremor", "assay_type": "in vivo", "conditions": "tremorine 15 mg/kg i.p., drug per os, Examples 28, 29: 50 to 300 mg/kg; for ED50: Mus musculus, po", "experimental": "as §3, §5, §1, §2"}, "[6]": {"conditions": "Marshall, Brit. J. Pharmacol. 10, 270 (1955), technique of Schild; cited from earlier work"}, "[7]": {"conditions": "Examples 28, 29: 50 to 300 mg/kg, read-out: Reserpine antagonism, Curative Sedation ED50"}, "[8]": {"conditions": "Examples 28, 29: 50 to 300 mg/kg, read-out: Reserpine antagonism, Curative ptosis ED50"}, "[9]": {"conditions": "read-out: Reserpine antagonism, Preventive Sedation ED50"}, "[10]": {"conditions": "read-out: Reserpine antagonism, Preventive ptosis ED50"}, "[11]": {"conditions": "Examples 28, 29: 50 to 300 mg/kg"}}, "note": "Entries after “also recorded” stand apart in the source; their conditions may differ."}
{"compound": "c1ccc(CN2CCC(c3ccccc3)(c3ccccc3)CC2)cc1", "note": "[Example 10, 1-Benzyl-4,4-diphenylpiperidine]", "values": [{"measurement": "LD50", "setting": "[1]", "value": 20, "unit": "mg/kg"}, {"measurement": "Locomotory activity (in words)", "setting": "albino mouse [2]", "value": "only slightly increased"}, {"measurement": "Restlessness, stereotypia or salivation (in words)", "setting": "albino mouse [2]", "value": "without causing restlessness, sterotypia or salivation"}, {"measurement": "Vigilance of the animal (in words)", "setting": "albino mouse [2]", "value": "strong increase"}, {"measurement": "Vigilance", "setting": "albino mouse [2]", "value": "++"}]}
{"compound": "CC(=O)CN1CCC(c2ccccc2)(c2ccccc2)CC1", "note": "[Example 17, 1-Acetonyl-4,4-diphenylpiperidine]", "values": [{"measurement": "LD50", "setting": "[1]", "value": 34, "unit": "mg/kg"}, {"measurement": "ED50", "setting": "albino mouse [3]; [7]", "value": "~25", "unit": "mg/kg"}, {"measurement": "ED50", "setting": "albino mouse [3]; [8]", "value": "> 25", "unit": "mg/kg"}, {"measurement": "ED50", "setting": "albino mouse [3]; [9]", "value": 15, "unit": "mg/kg"}, {"measurement": "ED50", "setting": "albino mouse [3]; [10]", "value": 12, "unit": "mg/kg"}, {"measurement": "ED50", "setting": "albino mouse [4]", "value": "> 25", "unit": "mg/kg"}, {"measurement": "Locomotory activity (in words)", "setting": "albino mouse [2]", "value": "only slightly increased"}, {"measurement": "Restlessness, stereotypia or salivation (in words)", "setting": "albino mouse [2]", "value": "without causing restlessness, sterotypia or salivation"}, {"measurement": "Vigilance of the animal (in words)", "setting": "albino mouse [2]", "value": "strong increase"}, {"measurement": "Locomotory activity", "setting": "albino mouse [2]", "value": "(+)"}, {"measurement": "Restlessness Stereotype", "setting": "albino mouse [2]", "value": ".phi. (no effect)"}, {"measurement": "Salivation", "setting": "albino mouse [2]", "value": ".phi. (no effect)"}, {"measurement": "Vigilance", "setting": "albino mouse [2]", "value": "++"}, {"measurement": "ED50", "setting": "albino mouse [5]", "value": 17, "unit": "mg/kg"}]}
{"compound": "c1ccc(C2(c3ccccc3)CCNCC2)cc1", "note": "[Example 19, 4,4-Diphenylpiperidine]", "values": [{"measurement": "LD50", "setting": "[1]", "value": 25, "unit": "mg/kg"}, {"measurement": "ED50", "setting": "albino mouse [3]; [7]", "value": 10, "unit": "mg/kg"}, {"measurement": "ED50", "setting": "albino mouse [3]; [8]", "value": "> 50", "unit": "mg/kg"}, {"measurement": "ED50", "setting": "albino mouse [3]; [9]", "value": 5, "unit": "mg/kg"}, {"measurement": "ED50", "setting": "albino mouse [3]; [10]", "value": 10, "unit": "mg/kg"}, {"measurement": "ED50", "setting": "albino mouse [4]", "value": 20, "unit": "mg/kg"}, {"measurement": "Locomotory activity (in words)", "setting": "albino mouse [2]", "value": "only slightly increased"}, {"measurement": "Restlessness, stereotypia or salivation (in words)", "setting": "albino mouse [2]", "value": "without causing restlessness, sterotypia or salivation"}, {"measurement": "Vigilance of the animal (in words)", "setting": "albino mouse [2]", "value": "strong increase"}, {"measurement": "Locomotory activity", "setting": "albino mouse [2]", "value": "(+)"}, {"measurement": "Restlessness Stereotype", "setting": "albino mouse [2]", "value": ".phi. (no effect)"}, {"measurement": "Salivation", "setting": "albino mouse [2]", "value": ".phi. (no effect)"}, {"measurement": "Vigilance", "setting": "albino mouse [2]", "value": "++"}, {"measurement": "ED50", "setting": "albino mouse [5]", "value": 2, "unit": "mg/kg"}]}
{"compound": "CCC(C)N1CCC(c2ccccc2)(c2ccccc2)CC1", "note": "(stereo not drawn) [Example 26, 1-(secondary Butyl)-4,4-diphenylpiperidine]", "values": [{"measurement": "LD50", "setting": "[1]", "value": 19, "unit": "mg/kg"}, {"measurement": "ED50", "setting": "albino mouse [3]; [7]", "value": 10, "unit": "mg/kg"}, {"measurement": "ED50", "setting": "albino mouse [3]; [9]", "value": 10, "unit": "mg/kg"}, {"measurement": "ED50", "setting": "albino mouse [3]; [10]", "value": 25, "unit": "mg/kg"}, {"measurement": "Reserpine antagonism, Curative ptosis ED50", "setting": "albino mouse [3]; [11]", "value": "(+)"}, {"measurement": "ED50", "setting": "albino mouse [4]", "value": 7, "unit": "mg/kg"}, {"measurement": "Antihistaminic activity", "setting": "[6]", "value": "devoid of any therapeutically-utilizable antihistaminic activity; also recorded: devoid of any therapeutically utilizable antihistaminic activity"}, {"measurement": "Locomotory activity (in words)", "setting": "albino mouse [2]", "value": "only slightly increased"}, {"measurement": "Restlessness, stereotypia or salivation (in words)", "setting": "albino mouse [2]", "value": "without causing restlessness, sterotypia or salivation"}, {"measurement": "Vigilance of the animal (in words)", "setting": "albino mouse [2]", "value": "strong increase"}, {"measurement": "Locomotory activity", "setting": "albino mouse [2]", "value": "(+)"}, {"measurement": "Restlessness Stereotype", "setting": "albino mouse [2]", "value": ".phi. (no effect)"}, {"measurement": "Salivation", "setting": "albino mouse [2]", "value": ".phi. (no effect)"}, {"measurement": "Vigilance", "setting": "albino mouse [2]", "value": "++"}, {"measurement": "ED50", "setting": "albino mouse [5]", "value": 5, "unit": "mg/kg"}]}
{"compound": "OCCCN1CCC(c2ccccc2)(c2ccccc2)CC1", "note": "[Example 30, 1-(3-hydroxypropyl)-4,4-diphenylpiperidine]", "values": [{"measurement": "LD50", "setting": "[1]", "value": 32, "unit": "mg/kg"}, {"measurement": "ED50", "setting": "albino mouse [3]; [9]", "value": 25, "unit": "mg/kg"}, {"measurement": "ED50", "setting": "albino mouse [3]; [10]", "value": 25, "unit": "mg/kg"}, {"measurement": "Reserpine antagonism, Curative Sedation ED50", "setting": "albino mouse [3]; [11]", "value": ".phi. (no effect)"}, {"measurement": "Reserpine antagonism, Curative ptosis ED50", "setting": "albino mouse [3]; [11]", "value": "(+)"}, {"measurement": "ED50", "setting": "albino mouse [4]", "value": 5, "unit": "mg/kg"}, {"measurement": "Locomotory activity (in words)", "setting": "albino mouse [2]", "value": "only slightly increased"}, {"measurement": "Restlessness, stereotypia or salivation (in words)", "setting": "albino mouse [2]", "value": "without causing restlessness, sterotypia or salivation"}, {"measurement": "Vigilance of the animal (in words)", "setting": "albino mouse [2]", "value": "strong increase"}, {"measurement": "Locomotory activity", "setting": "albino mouse [2]", "value": "+ (increase)"}, {"measurement": "Restlessness Stereotype", "setting": "albino mouse [2]", "value": ".phi. (no effect)"}, {"measurement": "Salivation", "setting": "albino mouse [2]", "value": ".phi. (no effect)"}, {"measurement": "Vigilance", "setting": "albino mouse [2]", "value": "++"}, {"measurement": "ED50", "setting": "albino mouse [5]", "value": 5, "unit": "mg/kg"}]}
{"compound": "CC(=O)CCN1CCC(c2ccccc2)(c2ccccc2)CC1", "note": "[Example 32, 1-(2-Acetoethyl)-4,4-diphenylpiperidine]", "values": [{"measurement": "Reserpine antagonism, Preventive Sedation ED50", "setting": "albino mouse [3]", "value": 15, "unit": "mg/kg"}, {"measurement": "Reserpine antagonism, Preventive ptosis ED50", "setting": "albino mouse [3]", "value": 10, "unit": "mg/kg"}, {"measurement": "Reserpine antagonism, Curative Sedation ED50", "setting": "albino mouse [3]; [11]", "value": "~ 50 mg/kg"}, {"measurement": "Reserpine antagonism, Curative ptosis ED50", "setting": "albino mouse [3]; [11]", "value": "> 60", "unit": "mg/kg"}, {"measurement": "Perphenazine catalepsy antagonism ED50", "setting": "albino mouse [4]", "value": 45, "unit": "mg/kg"}, {"measurement": "Locomotory activity (in words)", "setting": "albino mouse [2]", "value": "only slightly increased"}, {"measurement": "Restlessness, stereotypia or salivation (in words)", "setting": "albino mouse [2]", "value": "without causing restlessness, sterotypia or salivation"}, {"measurement": "Vigilance of the animal (in words)", "setting": "albino mouse [2]", "value": "strong increase"}, {"measurement": "Locomotory activity", "setting": "albino mouse [2]", "value": "(+)"}, {"measurement": "Restlessness Stereotype", "setting": "albino mouse [2]", "value": ".phi. (no effect)"}, {"measurement": "Salivation", "setting": "albino mouse [2]", "value": ".phi. (no effect)"}, {"measurement": "Vigilance", "setting": "albino mouse [2]", "value": "++"}, {"measurement": "Tremorine tremor antagonism ED50", "setting": "albino mouse [5]", "value": 15, "unit": "mg/kg"}]}
